For orientation: inhibition means the change of the read-out against control, counted positive when it falls. Usually Ki stands for the equilibrium dissociation constant of an inhibitor or competing ligand from its target. Lower therefore signals a stronger hold on the target.

For data set [1], the target named is T1, GABA transporter 4 (Mus musculus, UniProt P31650).
T1 sequence (P31650 whole entry): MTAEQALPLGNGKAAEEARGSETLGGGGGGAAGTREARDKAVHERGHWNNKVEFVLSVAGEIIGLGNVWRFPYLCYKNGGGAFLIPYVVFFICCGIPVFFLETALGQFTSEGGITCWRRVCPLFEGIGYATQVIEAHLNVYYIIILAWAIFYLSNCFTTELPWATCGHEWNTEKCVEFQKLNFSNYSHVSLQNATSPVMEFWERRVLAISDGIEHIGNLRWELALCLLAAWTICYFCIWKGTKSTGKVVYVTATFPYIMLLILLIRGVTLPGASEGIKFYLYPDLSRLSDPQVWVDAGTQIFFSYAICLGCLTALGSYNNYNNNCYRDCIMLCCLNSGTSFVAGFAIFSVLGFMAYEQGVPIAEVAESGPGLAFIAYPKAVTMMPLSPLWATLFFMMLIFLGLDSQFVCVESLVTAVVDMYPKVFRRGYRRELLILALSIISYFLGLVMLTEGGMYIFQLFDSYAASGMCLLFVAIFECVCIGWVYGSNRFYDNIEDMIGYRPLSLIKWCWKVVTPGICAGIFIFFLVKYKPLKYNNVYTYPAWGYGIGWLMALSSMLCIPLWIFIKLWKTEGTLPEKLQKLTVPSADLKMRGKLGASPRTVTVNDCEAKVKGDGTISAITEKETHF
The experiment in a line: Inhibition of mouse GAT4 transfected in HEK293 cells assessed as reduction in [3H]-GABA uptake. It is filed as cell-based.

For data set [2], the target named is T2, Sodium- and chloride-dependent GABA transporter 1 (Mus musculus, UniProt P31648). The experiment in a line: Inhibition of mouse GAT1 expressed in HEK293 cells assessed as reduction in [3H]-GABA uptake. It is filed as cell-based. The following applies: read-out: IC50.
The subject of data set [3] is HEK293. The experiment in a line: Inhibition of mouse GAT3 transfected in HEK293 cells assessed as reduction in [3H]-GABA uptake by measuring residual activity at 100 uM relative to control. Type of data set: cell-based.
The target in data set [4] is T3, GABA transporter 2 (Mus musculus) (UniProt P31651).
T3 sequence (whole entry): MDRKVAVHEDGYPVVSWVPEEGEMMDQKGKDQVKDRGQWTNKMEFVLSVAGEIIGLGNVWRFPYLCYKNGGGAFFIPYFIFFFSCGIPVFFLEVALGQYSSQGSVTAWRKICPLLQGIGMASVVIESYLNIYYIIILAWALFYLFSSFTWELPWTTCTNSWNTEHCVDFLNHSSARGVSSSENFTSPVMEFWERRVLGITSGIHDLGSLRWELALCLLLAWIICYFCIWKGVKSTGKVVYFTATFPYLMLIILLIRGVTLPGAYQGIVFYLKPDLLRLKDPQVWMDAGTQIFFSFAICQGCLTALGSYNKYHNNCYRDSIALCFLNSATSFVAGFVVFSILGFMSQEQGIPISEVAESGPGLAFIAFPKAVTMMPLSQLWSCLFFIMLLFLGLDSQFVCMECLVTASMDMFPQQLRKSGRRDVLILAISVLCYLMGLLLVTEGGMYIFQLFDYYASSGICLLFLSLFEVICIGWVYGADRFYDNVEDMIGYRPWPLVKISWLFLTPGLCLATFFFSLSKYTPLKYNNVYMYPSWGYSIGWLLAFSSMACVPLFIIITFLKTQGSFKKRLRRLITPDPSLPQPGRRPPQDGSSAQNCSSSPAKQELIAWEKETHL
The experiment in a line: Inhibition of mouse GAT2 transfected in HEK293 cells assessed as reduction in [3H]-GABA uptake by measuring residual activity at 100 uM relative to control. It is filed as cell-based.

Data set [5] concerns the target Amyloid-beta precursor protein (Homo sapiens) (UniProt P05067). The experiment in a line: Inhibition of soluble amyloid beta40 (unknown origin) aggregation assessed as inhibition of fibril elongation by measuring fold reduction in elongation ratio at 10 uM measured after 24 hrs by ThT fluorescence based assay.
Data set [6] deals with Cholinesterase (Equus caballus, UniProt P81908).
Description: Inhibition of equine serum BuChE using butyrylthiocholine iodide as substrate preincubated for 5 mins followed by substrate addition and measured after 5 mins by DTNB reagent based Ellman's method
For data set [7], the system named is Mus musculus. The experiment in a line: Cognitive enhancing activity in Albino Swiss (CD-1) mouse model of scopolamine induced cognitive dysfunction and amnesia assessed as prolongation of step-through latency in acquisition phase at 30 mg/kg, ip pretreated for 30 mins followed by scopolamine administration and measured after 30 mins by passive avoidance test. The conditions noted are these: time 60.0 min. It is filed as functional, organism-based.

Data set [8] deals with Amyloid-beta precursor protein (Homo sapiens) (UniProt P05067). The experiment in a line: Inhibition of soluble amyloid beta40 (unknown origin) aggregation at 10 uM measured after 24 hrs by ThT fluorescence based assay relative to control.
The target is the same in data set [9]. The experiment in a line: Inhibition of soluble amyloid beta40 (unknown origin) aggregation assessed as lag time of amyloid polymerization at 10 uM measured after 24 hrs by ThT fluorescence based assay (reference value: […] min).
The subject of data set [10] is Mus musculus. The experiment in a line: Cognitive enhancing activity in Albino Swiss (CD-1) mouse model of scopolamine induced memory deficits and amnesia assessed as increase in discrimination index at 30 mg/kg, ip pretreated for 30 mins followed by scopolamine administration and measured after 30 mins by Novel object recognition test. It is filed as functional, organism-based. The conditions noted are these: time 60.0 min.

Data set [11] has as its target Acetylcholinesterase (Electrophorus electricus) (UniProt O42275). The experiment in a line: Inhibition of electric eel AChE using acetylthiocholine iodide as substrate at 10 uM preincubated for 5 mins followed by substrate addition and measured after 5 mins by DTNB reagent based Ellman's method relative to control. The conditions noted are these: time 10.0 min. For orientation: Ellman's reagent forms a yellow product with free thiols.

Data set [12] relates to HEK293. The experiment in a line: Cytotoxicity against HEK293 cells assessed as reduction in cell viability at 0.1 to 1 uM incubated for 72 hrs by MTS assay. It is filed as toxicity, cell-based. The following applies: human, hek293, 72 h, dose 0.1-1 µM. For orientation: Formazan colour is commonly taken as a measure of viable cells.
Data set [13] concerns the target Amyloid-beta precursor protein (Homo sapiens) (UniProt P05067). The experiment in a line: Inhibition of amyloid beta40 (unknown origin) aggregation at 10 uM measured every 5 mins by ThT fluorescence based assay relative to control.
Data set [14] has as its system HepG2. The experiment in a line: Cytotoxicity against human HepG2 cells assessed as reduction in cell viability at 0.1 to 1 uM incubated for 72 hrs by MTS assay. Type of data set: toxicity, cell-based. The following applies: hepg2, 72 h, dose 0.1-1 µM.
In data set [15] the target is Beta-secretase 1 (Homo sapiens, UniProt P56817).
Data set [16] concerns the target Amyloid-beta precursor protein (Homo sapiens) (UniProt P05067). The experiment in a line: Inhibition of soluble amyloid beta40 (unknown origin) aggregation assessed as end time of amyloid polymerization at 10 uM measured after 24 hrs by ThT fluorescence based assay (reference value: […] min).
Data set [17] has the same target. The experiment in a line: Inhibition of soluble amyloid beta40 (unknown origin) aggregation assessed as elongation constant at 10 uM measured after 24 hrs by ThT fluorescence based assay (reference value: […] /M/min).
Data set [18] has as its system Mus musculus. The experiment in a line: Cognitive enhancing activity in Albino Swiss (CD-1) mouse model of scopolamine induced cognitive dysfunction and amnesia assessed as prolongation of step-through latency in retention trail at 10 to 30 mg/kg, ip pretreated for 30 mins followed by scopolamine administration and measured after 30 mins by passive avoidance test. Type of data set: functional, organism-based. The conditions noted are these: dose 10-30 mg/kg, time 60.0 min.

Data set [19] in a line: Inhibition of mouse GAT3 transfected in HEK293 cells assessed as reduction in [3H]-GABA uptake preincubated for 25 mins followed by [3H]-GABA addition and measured after 4 mins by liquid scintillation counting analysis. The following applies: HEK293; read-out: pIC50 (converted). Type of data set: cell-based.
Data set [20] addresses T2, Sodium- and chloride-dependent GABA transporter 1. The experiment in a line: Inhibition of NO 711 marker binding to mouse GAT1 by LC-ESI-MS/MS based competitive MS binding assay.
Data set [21] has as its target T4, GABA transporter 2 (Mus musculus, UniProt P31651).
T4 sequence (P31651 whole entry): T3 sequence (whole entry)
The experiment in a line: Inhibition of mouse GAT2 transfected in HEK293 cells assessed as reduction in [3H]-GABA uptake preincubated for 25 mins followed by [3H]-GABA addition and measured after 10 mins by liquid scintillation counting analysis. Type of data set: cell-based. The following applies: read-out: pIC50 (converted).

Data set [22] addresses Amyloid-beta precursor protein (Homo sapiens) (UniProt P05067). The experiment in a line: Inhibition of soluble amyloid beta40 (unknown origin) aggregation assessed as fold reduction in nucleation ratio at 10 uM measured after 24 hrs by ThT fluorescence based assay.
Data set [23] addresses T2, Sodium- and chloride-dependent GABA transporter 1. The experiment in a line: Inhibition of mouse GAT1 transfected in HEK293 cells assessed as reduction in [3H]-GABA uptake preincubated for 25 mins followed by [3H]-GABA addition and measured after 4 mins by liquid scintillation counting analysis. It is filed as cell-based. The following applies: read-out: pIC50 (converted).

Data set [24] concerns the target Amyloid-beta precursor protein (Homo sapiens) (UniProt P05067). The experiment in a line: Inhibition of soluble amyloid beta40 (unknown origin) aggregation assessed as nucleation constant at 10 uM measured after 24 hrs by ThT fluorescence based assay (reference value: […] 10^-4/min).
For data set [25] the target is unchanged. The experiment in a line: Inhibition of amyloid beta42 (unknown origin) aggregation expressed in Escherichia coli BL21 (DE3) at 10 uM measured every 5 mins by ThT fluorescence based assay relative to control.
The target is the same in data set [26]. The experiment in a line: Inhibition of soluble amyloid beta40 (unknown origin) aggregation assessed as time of half-aggregation at 10 uM measured after 24 hrs by ThT fluorescence based assay (reference value: […] min).
Data set [27] deals with T1, GABA transporter 4. The experiment in a line: Inhibition of mouse GAT4 transfected in HEK293 cells assessed as reduction in [3H]-GABA uptake preincubated for 25 mins followed by [3H]-GABA addition and measured after 4 mins by liquid scintillation counting analysis. The conditions noted are these: read-out: pIC50 (converted). It is filed as cell-based.

Active and inactive are the calls of the source. No cut-off for these calls is given here.

Chain of Amyloid-beta precursor protein (Homo sapiens) (P05067 whole entry): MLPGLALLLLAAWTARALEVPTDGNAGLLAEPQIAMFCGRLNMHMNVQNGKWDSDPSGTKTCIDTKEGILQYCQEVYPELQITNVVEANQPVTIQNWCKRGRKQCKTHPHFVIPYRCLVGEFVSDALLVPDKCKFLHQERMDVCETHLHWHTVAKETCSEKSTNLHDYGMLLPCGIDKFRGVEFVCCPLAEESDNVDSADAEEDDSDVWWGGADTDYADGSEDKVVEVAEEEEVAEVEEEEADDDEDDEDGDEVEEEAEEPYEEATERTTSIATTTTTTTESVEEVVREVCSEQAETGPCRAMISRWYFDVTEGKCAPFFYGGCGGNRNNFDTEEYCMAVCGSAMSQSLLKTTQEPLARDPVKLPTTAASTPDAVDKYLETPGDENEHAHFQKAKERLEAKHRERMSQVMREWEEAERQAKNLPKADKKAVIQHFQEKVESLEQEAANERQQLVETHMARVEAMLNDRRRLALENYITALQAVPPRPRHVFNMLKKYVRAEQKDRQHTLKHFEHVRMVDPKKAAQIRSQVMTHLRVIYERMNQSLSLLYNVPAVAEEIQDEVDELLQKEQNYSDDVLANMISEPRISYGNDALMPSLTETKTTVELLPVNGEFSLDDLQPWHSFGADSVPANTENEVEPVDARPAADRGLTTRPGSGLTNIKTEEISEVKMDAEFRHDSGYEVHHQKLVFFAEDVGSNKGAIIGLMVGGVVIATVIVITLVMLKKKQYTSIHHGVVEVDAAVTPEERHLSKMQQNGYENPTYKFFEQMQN
Chain of Cholinesterase (P81908 whole entry): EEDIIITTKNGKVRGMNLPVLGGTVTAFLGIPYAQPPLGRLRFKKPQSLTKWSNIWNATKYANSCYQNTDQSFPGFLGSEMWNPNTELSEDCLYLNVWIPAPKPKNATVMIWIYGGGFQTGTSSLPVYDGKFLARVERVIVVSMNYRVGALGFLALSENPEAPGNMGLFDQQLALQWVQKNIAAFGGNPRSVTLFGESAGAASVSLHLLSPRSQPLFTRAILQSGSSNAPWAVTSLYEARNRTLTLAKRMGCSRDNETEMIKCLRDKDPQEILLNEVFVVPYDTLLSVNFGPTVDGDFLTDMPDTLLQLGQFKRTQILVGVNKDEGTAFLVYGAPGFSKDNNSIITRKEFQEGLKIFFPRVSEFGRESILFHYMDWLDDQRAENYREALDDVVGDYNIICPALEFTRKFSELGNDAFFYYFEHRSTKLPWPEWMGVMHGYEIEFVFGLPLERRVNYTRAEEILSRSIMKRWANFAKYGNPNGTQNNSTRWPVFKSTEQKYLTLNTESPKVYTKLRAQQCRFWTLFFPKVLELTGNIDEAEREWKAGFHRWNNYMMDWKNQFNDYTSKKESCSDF
Chain of Beta-secretase 1 (P56817 whole entry): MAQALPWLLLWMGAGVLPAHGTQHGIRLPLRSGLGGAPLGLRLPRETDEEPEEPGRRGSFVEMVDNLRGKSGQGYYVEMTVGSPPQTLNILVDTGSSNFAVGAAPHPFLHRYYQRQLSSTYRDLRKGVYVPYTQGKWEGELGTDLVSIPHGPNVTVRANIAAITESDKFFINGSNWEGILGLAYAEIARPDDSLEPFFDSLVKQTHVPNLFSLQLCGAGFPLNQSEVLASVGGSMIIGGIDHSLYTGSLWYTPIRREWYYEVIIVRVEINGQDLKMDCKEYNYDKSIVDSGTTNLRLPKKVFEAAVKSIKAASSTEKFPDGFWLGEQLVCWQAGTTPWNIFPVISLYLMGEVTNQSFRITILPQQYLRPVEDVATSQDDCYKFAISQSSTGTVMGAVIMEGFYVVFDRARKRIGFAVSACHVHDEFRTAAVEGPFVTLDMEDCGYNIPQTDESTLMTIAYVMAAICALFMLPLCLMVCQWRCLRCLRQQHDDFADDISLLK
Chain of Acetylcholinesterase (Electrophorus electricus) (O42275 24-633 limits assumed): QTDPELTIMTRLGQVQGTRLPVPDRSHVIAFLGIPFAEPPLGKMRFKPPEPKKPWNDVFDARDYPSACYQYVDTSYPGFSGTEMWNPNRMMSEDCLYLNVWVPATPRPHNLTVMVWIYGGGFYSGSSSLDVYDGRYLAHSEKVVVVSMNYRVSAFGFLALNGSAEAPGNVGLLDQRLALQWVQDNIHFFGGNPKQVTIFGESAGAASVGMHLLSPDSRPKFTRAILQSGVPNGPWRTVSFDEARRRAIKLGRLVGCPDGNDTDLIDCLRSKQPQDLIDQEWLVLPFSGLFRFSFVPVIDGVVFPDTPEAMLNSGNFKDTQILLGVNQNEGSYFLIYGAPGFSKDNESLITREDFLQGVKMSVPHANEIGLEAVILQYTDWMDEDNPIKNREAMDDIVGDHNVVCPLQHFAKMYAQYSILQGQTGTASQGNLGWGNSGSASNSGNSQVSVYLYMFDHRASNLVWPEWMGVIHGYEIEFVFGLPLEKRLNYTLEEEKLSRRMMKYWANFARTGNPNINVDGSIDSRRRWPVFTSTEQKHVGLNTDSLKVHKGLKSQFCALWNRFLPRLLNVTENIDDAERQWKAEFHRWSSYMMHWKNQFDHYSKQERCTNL

`O=C(O)C1=CN(CC/C=C/c2ccccc2-c2ccc(Cl)cc2Cl)CCC1`: the IC50 is 63.1 µM in [1] and 37 nM in [2]. In addition, the Activity was 91% in data set [3] and 73% in [4].

Regarding `CN(CCOCCN1c2ccccc2Sc2ccccc21)C(CCN)C(=O)NCc1ccc(Cl)cc1` (configuration not stated), the results for the fold change (FC) in data set [5] and in [22] were 2 and 11, respectively. Besides, the IC50 in data set [6] is 559 nM; in [15] it was 1570 nM; in [19] it was 6.31 µM; in data set [21], 12.3 µM; in [23] it was 9.77 µM; in data set [27] it was 12 µM. Besides, the result in data set [7] and in [10] was Active. Also, the inhibition in data set [8] is 85.5%; in data set [11], 42%; in [13], 98.5%; in data set [25], 34.6%. Besides, the results for the TIME in data set [9] and in data set [16] were 2.91 h and 6.46 h, respectively. Moreover, the Activity result in data set [12] and in [14] was “Non-Toxic” throughout. Besides, the K in [17] was 4440 M⁻¹ min⁻¹; in data set [24] it was 4.04 10^-4/min. Also, the result in data set [18] was inactive. In addition, in [20], the Ki was 45.7 µM. The T1/2 in [26] came out at 4.68 h.

Values taken from ChEMBL document CHEMBL5335794, “Discovery of novel multifunctional ligands targeting GABA transporters, butyrylcholinesterase, β-secretase, and amyloid β aggregation as potential treatment of Alzheimer's disease” (Eur J Med Chem, 2023).
